From patent publication US20090304692A1, “TRIAZINE COMPOUNDS AS PI3 KINASE AND MTOR INHIBITORS” (Wyeth, priority 2008, published 2009) come the findings set out here.

For assay [1], the system named is human breast MDA-MB-361 tumor cell line. In words: In vitro cell culture growth assay (MTS), MDA-MB-361. It is filed as cell-based. The settings on record: Homo sapiens, MTS cell growth assay, three days after drug treatment, MDA-MB-361 cells, read-out: IC50 MDA-MB-361. For orientation: Tetrazolium dyes change colour on reduction, which living cells bring about.
For the next assay, the target named is Human mTOR (FLAG-TOR) (Homo sapiens, UniProt P42345). Nature of the assay: mTOR kinase assay (DELFIA format, purified enzyme). In kind it is biochemical. The settings on record: read-out: IC50 mTOR.
A further assay concerns the target PI3K-γ (Homo sapiens, UniProt P48736). In words: PI3K-gamma fluorescence polarization assay. The settings on record: read-out: IC50 PI3Kγ. For orientation: Polarisation of emitted light reports the rotation of a fluorescent probe.
Assay [2] relates to human prostate PC3-mm2 tumor cell line. In words: In vitro cell culture growth assay (MTS), PC3-mm2. The settings on record: Homo sapiens, PC3MM2, 72 h, MTS cell growth assay, three days after drug treatment, PC3-mm2 cells; read-out: IC50 PC3-mm2. It is filed as cell-based.
For a further assay, the target named is PI3K-α (Homo sapiens, UniProt P42336). In words: PI3K-alpha fluorescence polarization assay. As to conditions: read-out: IC50 PI3Kα.

The structures appear in SMILES notation. Where two headings read alike, the source gives them in different places.

Human mTOR (FLAG-TOR), sequence (P42345 1360-2549 limits assumed): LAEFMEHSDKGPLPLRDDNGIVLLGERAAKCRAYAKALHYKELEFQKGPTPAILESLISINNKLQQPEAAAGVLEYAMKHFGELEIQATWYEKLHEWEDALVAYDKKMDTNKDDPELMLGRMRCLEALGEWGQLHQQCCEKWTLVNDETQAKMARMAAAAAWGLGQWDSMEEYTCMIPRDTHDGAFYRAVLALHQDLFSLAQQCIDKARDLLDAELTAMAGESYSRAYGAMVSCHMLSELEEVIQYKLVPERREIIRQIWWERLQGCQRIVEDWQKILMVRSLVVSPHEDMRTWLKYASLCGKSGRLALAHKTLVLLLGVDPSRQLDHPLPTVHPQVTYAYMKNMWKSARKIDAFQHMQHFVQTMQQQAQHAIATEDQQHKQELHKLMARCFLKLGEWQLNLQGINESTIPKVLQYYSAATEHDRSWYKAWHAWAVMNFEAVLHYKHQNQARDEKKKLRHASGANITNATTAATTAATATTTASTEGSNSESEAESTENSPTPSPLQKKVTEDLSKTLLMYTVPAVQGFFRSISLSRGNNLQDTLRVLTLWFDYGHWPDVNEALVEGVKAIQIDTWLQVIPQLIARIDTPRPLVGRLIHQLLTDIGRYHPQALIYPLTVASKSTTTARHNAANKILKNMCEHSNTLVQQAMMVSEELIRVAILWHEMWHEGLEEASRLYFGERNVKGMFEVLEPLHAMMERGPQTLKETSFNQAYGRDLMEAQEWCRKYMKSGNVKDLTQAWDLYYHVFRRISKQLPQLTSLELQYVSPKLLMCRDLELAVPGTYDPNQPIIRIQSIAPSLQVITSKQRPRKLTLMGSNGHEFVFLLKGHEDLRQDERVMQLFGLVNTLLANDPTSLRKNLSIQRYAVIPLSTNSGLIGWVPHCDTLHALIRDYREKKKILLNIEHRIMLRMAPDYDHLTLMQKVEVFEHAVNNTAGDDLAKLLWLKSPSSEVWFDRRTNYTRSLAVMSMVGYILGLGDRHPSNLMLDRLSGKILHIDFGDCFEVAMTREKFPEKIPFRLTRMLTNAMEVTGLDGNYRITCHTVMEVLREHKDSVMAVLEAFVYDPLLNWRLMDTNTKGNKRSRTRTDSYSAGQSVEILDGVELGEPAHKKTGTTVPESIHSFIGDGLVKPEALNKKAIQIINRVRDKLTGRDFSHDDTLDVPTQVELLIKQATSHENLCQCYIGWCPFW
PI3K-γ, sequence (P48736 whole entry, species assumed): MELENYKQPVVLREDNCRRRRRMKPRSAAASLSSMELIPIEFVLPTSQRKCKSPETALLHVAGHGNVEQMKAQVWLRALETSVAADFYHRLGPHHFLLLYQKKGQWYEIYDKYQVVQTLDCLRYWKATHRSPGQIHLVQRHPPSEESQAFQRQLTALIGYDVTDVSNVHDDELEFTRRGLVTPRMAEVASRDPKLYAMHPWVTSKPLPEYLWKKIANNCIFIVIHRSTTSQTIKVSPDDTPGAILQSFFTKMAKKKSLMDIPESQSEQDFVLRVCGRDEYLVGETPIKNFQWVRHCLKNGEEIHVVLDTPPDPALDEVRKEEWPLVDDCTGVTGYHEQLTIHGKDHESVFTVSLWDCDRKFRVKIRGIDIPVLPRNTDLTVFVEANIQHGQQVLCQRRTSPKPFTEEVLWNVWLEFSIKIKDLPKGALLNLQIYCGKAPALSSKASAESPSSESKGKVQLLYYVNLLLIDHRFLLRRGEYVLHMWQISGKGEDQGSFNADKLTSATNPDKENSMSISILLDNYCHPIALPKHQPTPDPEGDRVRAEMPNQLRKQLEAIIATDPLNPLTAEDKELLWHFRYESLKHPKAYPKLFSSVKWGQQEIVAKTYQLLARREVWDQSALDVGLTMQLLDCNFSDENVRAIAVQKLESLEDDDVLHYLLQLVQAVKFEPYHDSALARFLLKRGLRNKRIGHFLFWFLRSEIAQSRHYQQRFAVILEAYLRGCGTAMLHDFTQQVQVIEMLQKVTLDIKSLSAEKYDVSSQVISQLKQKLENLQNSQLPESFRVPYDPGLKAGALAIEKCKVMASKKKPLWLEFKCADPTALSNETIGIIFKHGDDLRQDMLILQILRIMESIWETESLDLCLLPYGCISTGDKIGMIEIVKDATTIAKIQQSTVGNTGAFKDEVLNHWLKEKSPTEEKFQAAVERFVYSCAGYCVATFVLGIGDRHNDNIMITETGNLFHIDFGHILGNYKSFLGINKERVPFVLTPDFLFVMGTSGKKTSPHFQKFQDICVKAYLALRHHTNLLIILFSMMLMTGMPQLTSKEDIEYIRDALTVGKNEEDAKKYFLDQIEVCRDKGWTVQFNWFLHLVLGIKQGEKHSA
PI3K-α, sequence (P42336 whole entry, species assumed): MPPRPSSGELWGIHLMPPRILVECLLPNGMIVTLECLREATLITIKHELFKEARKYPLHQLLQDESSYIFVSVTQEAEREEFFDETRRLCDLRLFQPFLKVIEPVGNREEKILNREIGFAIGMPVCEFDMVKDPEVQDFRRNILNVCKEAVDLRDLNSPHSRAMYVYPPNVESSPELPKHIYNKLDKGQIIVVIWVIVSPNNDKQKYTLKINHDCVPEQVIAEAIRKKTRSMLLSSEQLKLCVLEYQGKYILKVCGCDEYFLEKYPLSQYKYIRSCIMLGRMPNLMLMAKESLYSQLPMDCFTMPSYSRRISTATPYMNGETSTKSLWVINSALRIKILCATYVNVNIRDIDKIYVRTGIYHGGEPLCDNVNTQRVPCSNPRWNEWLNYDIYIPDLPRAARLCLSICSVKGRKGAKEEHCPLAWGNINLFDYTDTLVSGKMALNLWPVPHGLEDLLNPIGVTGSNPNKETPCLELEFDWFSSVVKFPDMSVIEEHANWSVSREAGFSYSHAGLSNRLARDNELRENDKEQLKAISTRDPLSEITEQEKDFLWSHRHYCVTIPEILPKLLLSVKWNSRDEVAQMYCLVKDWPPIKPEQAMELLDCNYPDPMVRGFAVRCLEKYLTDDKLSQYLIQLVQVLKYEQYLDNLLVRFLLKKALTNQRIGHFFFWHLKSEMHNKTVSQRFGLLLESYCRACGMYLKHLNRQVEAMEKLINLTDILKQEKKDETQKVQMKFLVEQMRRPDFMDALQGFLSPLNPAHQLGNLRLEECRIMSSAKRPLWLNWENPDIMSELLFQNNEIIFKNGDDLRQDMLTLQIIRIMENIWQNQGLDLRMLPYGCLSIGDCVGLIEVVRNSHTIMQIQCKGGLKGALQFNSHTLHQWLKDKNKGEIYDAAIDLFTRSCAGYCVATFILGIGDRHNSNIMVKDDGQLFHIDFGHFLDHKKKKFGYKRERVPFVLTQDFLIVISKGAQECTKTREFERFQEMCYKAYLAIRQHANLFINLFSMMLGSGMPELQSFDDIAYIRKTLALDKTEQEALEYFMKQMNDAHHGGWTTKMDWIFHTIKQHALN
PI3K-α, sequence (P27986 whole entry partner, species assumed): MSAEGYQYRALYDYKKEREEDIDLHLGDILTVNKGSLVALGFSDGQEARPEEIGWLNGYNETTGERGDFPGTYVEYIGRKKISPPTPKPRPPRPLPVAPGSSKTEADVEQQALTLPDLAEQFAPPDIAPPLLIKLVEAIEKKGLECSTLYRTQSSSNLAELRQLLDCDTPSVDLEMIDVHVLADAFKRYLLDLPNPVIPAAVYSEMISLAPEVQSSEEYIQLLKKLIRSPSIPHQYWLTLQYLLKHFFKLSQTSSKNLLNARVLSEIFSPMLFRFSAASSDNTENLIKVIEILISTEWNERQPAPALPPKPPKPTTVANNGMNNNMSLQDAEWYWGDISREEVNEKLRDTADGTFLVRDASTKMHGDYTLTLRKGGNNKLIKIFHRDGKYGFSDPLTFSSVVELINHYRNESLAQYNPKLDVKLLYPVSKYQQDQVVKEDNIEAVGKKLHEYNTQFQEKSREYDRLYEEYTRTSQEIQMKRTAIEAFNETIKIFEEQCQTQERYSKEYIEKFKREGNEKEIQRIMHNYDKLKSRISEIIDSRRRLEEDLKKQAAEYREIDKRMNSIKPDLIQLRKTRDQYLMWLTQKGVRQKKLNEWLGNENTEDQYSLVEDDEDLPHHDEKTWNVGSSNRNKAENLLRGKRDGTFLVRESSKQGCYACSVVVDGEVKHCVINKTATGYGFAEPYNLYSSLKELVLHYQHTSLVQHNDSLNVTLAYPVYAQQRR

As for `CCNC(=O)N1CCC(Oc2nc(-c3ccc(NC(=O)Nc4ccncc4)cc3)nc(N3CCOCC3)n2)CC1` [Example 690, N-ethyl-4-[(4-morpholin-4-yl-6-{4-[(pyridin-4-ylcarbamoyl)amino]phenyl}-1,3,5-triazin-2-yl)oxy]piperidine-1-carboxamide], the IC50 (as a rule, the midpoint of a concentration-inhibition curve) is 112 nM in assay [1] (72 h); 0.525 nM at Human mTOR (FLAG-TOR); 83.5 nM at PI3K-γ; 405 nM in assay [2]; 5 nM at PI3K-α.
The like results for `CC(C)(C)OC(=O)N1CCC(Oc2nc(-c3ccc(NC(=O)Nc4ccncc4)cc3)nc(N3CCOCC3)n2)CC1` [Example 691, tert-butyl 4-[(4-morpholin-4-yl-6-{4-[(pyridin-4-ylcarbamoyl)amino]phenyl}-1,3,5-triazin-2-yl)oxy]piperidine-1-carboxylate] were, in that order, 52 nM, 1.35 nM, 199 nM, 131 nM and 6 nM.
In the case of `NS(=O)(=O)N1CCC(Oc2nc(-c3ccc(NC(=O)Nc4ccncc4)cc3)nc(N3CCOCC3)n2)CC1` [Example 692, 4-[(4-morpholin-4-yl-6-{4-[(pyridin-4-ylcarbamoyl)amino]phenyl}-1,3,5-triazin-2-yl)oxy]piperidine-1-sulfonamide], the IC50 is 97 nM in assay [1] (72 h); 3.75 nM at Human mTOR (FLAG-TOR); 29 nM at PI3K-γ; 326 nM in assay [2]; 3.2 nM on PI3K-α.
In the case of `CN(C)CCNC(=O)c1ccc(NC(=O)Nc2ccc(-c3nc(N4CCOCC4)nc(N4C5CCC4COC5)n3)cc2)cc1` [Example 694, N-[2-(dimethylamino)ethyl]-4-[({4-[4-morpholin-4-yl-6-(3-oxa-8-azabicyclo[3.2.1]oct-8-yl)-1,3,5-triazin-2-yl]phenyl}carbamoyl)amino]benzamide], the half-inhibitory concentration (IC50) was below 3 nM in assay [1] (72 h); 0.245 nM on Human mTOR (FLAG-TOR); 40 nM at PI3K-γ; 11 nM in assay [2]; 2 nM on PI3K-α.
`CN(C)C(=O)c1ccc(NC(=O)Nc2ccc(-c3nc(N4CCOCC4)nc(N4C5CCC4COC5)n3)cc2)cc1` [Example 695, N,N-dimethyl-4-[({4-[4-morpholin-4-yl-6-(3-oxa-8-azabicyclo[3.2.1]oct-8-yl)-1,3,5-triazin-2-yl]phenyl}carbamoyl)amino]benzamide]: the IC50 is 6 nM in assay [1] (72 h); 0.28 nM at Human mTOR (FLAG-TOR); 70.5 nM at PI3K-γ; 7 nM in assay [2]; 4 nM at PI3K-α.
In the case of `CNC(=O)c1ccc(NC(=O)Nc2ccc(-c3nc(N4CCOCC4)nc(N4C5CCC4COC5)n3)cc2)cc1` [Example 696, N-methyl-4-[({4-[4-morpholin-4-yl-6-(3-oxa-8-azabicyclo[3.2.1]oct-8-yl)-1,3,5-triazin-2-yl]phenyl}carbamoyl)amino]benzamide], the IC50 in assay [1] (MDA-MB-361, 72 h) came to 13 nM; at Human mTOR (FLAG-TOR) it was 0.275 nM; at PI3K-γ it was 73.5 nM; in assay [2] it was 13 nM; at PI3K-α it was 4.5 nM.
`CN1CCN(C(=O)c2ccc(NC(=O)Nc3ccc(-c4nc(N5CCOCC5)nc(N5C6CCC5COC6)n4)cc3)cc2)CC1` [Example 697, 1-{4-[(4-methylpiperazin-1-yl)carbonyl]phenyl}-3-{4-[4-morpholin-4-yl-6-(3-oxa-8-azabicyclo[3.2.1]oct-8-yl)-1,3,5-triazin-2-yl]phenyl}urea]: the IC50 was below 30 nM in assay [1] (MDA-MB-361, 72 h); 0.459 nM at Human mTOR (FLAG-TOR); 42.7 nM on PI3K-γ; below 30 nM in assay [2]; 2.7 nM at PI3K-α.
For `CN(C)CCN(C)C(=O)c1ccc(NC(=O)Nc2ccc(-c3nc(N4CCOCC4)nc(N4C5CCC4COC5)n3)cc2)cc1` [Example 698, N-[2-(dimethylamino)ethyl]-N-methyl-4-[({4-[4-morpholin-4-yl-6-(3-oxa-8-azabicyclo[3.2.1]oct-8-yl)-1,3,5-triazin-2-yl]phenyl}carbamoyl)amino]benzamide], the IC50 in assay [1] (72 h) is below 3 nM; at Human mTOR (FLAG-TOR), 0.302 nM; on PI3K-γ, 44.7 nM; in assay [2], 6 nM; on PI3K-α, 2.7 nM.
The like results for `O=C(Nc1ccc(C(=O)NCCO)cc1)Nc1ccc(-c2nc(N3CCOCC3)nc(N3C4CCC3COC4)n2)cc1` [Example 699, N-(2-hydroxyethyl)-4-[({4-[4-morpholin-4-yl-6-(3-oxa-8-azabicyclo[3.2.1]oct-8-yl)-1,3,5-triazin-2-yl]phenyl}carbamoyl)amino]benzamide] were, in that order, 36 nM, 0.3 nM, 62.5 nM, 40 nM and 5 nM.
Take `CN(C)CCCNC(=O)c1ccc(NC(=O)Nc2ccc(-c3nc(N4CCOCC4)nc(N4C5CCC4COC5)n3)cc2)cc1` [Example 700, N-[3-(dimethylamino)propyl]-4-[({4-[4-morpholin-4-yl-6-(3-oxa-8-azabicyclo[3.2.1]oct-8-yl)-1,3,5-triazin-2-yl]phenyl}carbamoyl)amino]benzamide]: the half-inhibitory concentration (IC50) in assay [1] (72 h) was determined as 5 nM; on Human mTOR (FLAG-TOR), 0.53 nM; at PI3K-γ, 41.5 nM; in assay [2], 20 nM; at PI3K-α, 2.5 nM.
As for `CNCCN(C)C(=O)c1ccc(NC(=O)Nc2ccc(-c3nc(N4CCOCC4)nc(N4C5CCC4COC5)n3)cc2)cc1` [Example 701, N-methyl-N-[2-(methylamino)ethyl]-4-[({4-[4-morpholin-4-yl-6-(3-oxa-8-azabicyclo[3.2.1]oct-8-yl)-1,3,5-triazin-2-yl]phenyl}carbamoyl)amino]benzamide], the IC50 in assay [1] (72 h) was below 30 nM; on Human mTOR (FLAG-TOR), 0.36 nM; at PI3K-γ, 25 nM; in assay [2] it was below 30 nM; on PI3K-α, 2 nM.
As to `CC1CN(C(=O)c2ccc(NC(=O)Nc3ccc(-c4nc(N5CCOCC5)nc(N5C6CCC5COC6)n4)cc3)cc2)CC(C)N1` (stereo not drawn) [Example 703, 1-{4-[(3,5-dimethylpiperazin-1-yl)carbonyl]phenyl}-3-{4-[4-morpholin-4-yl-6-(3-oxa-8-azabicyclo[3.2.1]oct-8-yl)-1,3,5-triazin-2-yl]phenyl}urea], the IC50 was below 3 nM in assay [1] (MDA-MB-361, 72 h); 0.51 nM on Human mTOR (FLAG-TOR); 23.5 nM on PI3K-γ; 13 nM in assay [2]; 1.5 nM at PI3K-α.
For the compound `O=C(Nc1ccc(-c2nc(N3CCOCC3)nc(N3C4CCC3COC4)n2)cc1)Nc1ccnc(Cl)c1` [Example 746, 1-(2-chloropyridin-4-yl)-3-{4-[4-morpholin-4-yl-6-(3-oxa-8-azabicyclo[3.2.1]oct-8-yl)-1,3,5-triazin-2-yl]phenyl}urea], the IC50 was determined as 93 nM in assay [1] (72 h); 1.27 nM at Human mTOR (FLAG-TOR); 99 nM on PI3K-γ; 118 nM in assay [2]; 23.5 nM on PI3K-α.
As for `O=C(Nc1ccc(-c2nc(N3CCOCC3)nc(N3C4CCC3COC4)n2)cc1)Nc1ccc(-c2nc(N3CCOCC3)nc(N3C4CCC3COC4)n2)cc1` [Example 751, 1,3-bis{4-[4-morpholin-4-yl-6-(3-oxa-8-azabicyclo[3.2.1]oct-8-yl)-1,3,5-triazin-2-yl]phenyl}urea], the IC50 in assay [1] (MDA-MB-361, 72 h) was 144 nM; on Human mTOR (FLAG-TOR), 3 nM; at PI3K-γ, 404 nM; in assay [2] it was 238 nM; at PI3K-α, 143 nM.
As to `CN(C)C1CCN(C(=O)c2ccc(NC(=O)Nc3ccc(-c4nc(N5CCOCC5)nc(N5C6CCC5COC6)n4)cc3)cc2)CC1` [Example 752, 1-(4-{[4-(dimethylamino)piperidin-1-yl]carbonyl}phenyl)-3-{4-[4-morpholin-4-yl-6-(3-oxa-8-azabicyclo[3.2.1]oct-8-yl)-1,3,5-triazin-2-yl]phenyl}urea], the IC50 in assay [1] (MDA-MB-361, 72 h) was below 3 nM; on Human mTOR (FLAG-TOR) it was 0.29 nM; at PI3K-γ, 18.5 nM; in assay [2], 6 nM; at PI3K-α it was 1.2 nM.
On to `CN1CCN(CCNC(=O)c2ccc(NC(=O)Nc3ccc(-c4nc(N5CCOCC5)nc(N5C6CCC5COC6)n4)cc3)cc2)CC1` [Example 753, N-[2-(4-methylpiperazin-1-yl)ethyl]-4-[({4-[4-morpholin-4-yl-6-(3-oxa-8-azabicyclo[3.2.1]oct-8-yl)-1,3,5-triazin-2-yl]phenyl}carbamoyl)amino]benzamide], for which the IC50 in assay [1] (72 h) came to 4 nM; at Human mTOR (FLAG-TOR), 0.315 nM; at PI3K-γ it was 31 nM; in assay [2], 14 nM; at PI3K-α, 2 nM.
Consider `CC(C)N1CCN(C(=O)c2ccc(NC(=O)Nc3ccc(-c4nc(N5CCOCC5)nc(N5C6CCC5COC6)n4)cc3)cc2)CC1` [Example 754, 1-{4-[(4-isopropylpiperazin-1-yl)carbonyl]phenyl}-3-{4-[4-morpholin-4-yl-6-(3-oxa-8-azabicyclo[3.2.1]oct-8-yl)-1,3,5-triazin-2-yl]phenyl}urea], for which the IC50 in assay [1] (MDA-MB-361, 72 h) amounted to 31.3 nM; at Human mTOR (FLAG-TOR), 0.327 nM; on PI3K-γ, 28 nM; in assay [2] it was 70.8 nM; on PI3K-α, 3 nM.
For `O=C(Nc1ccc(C(=O)N2CCN(C3CCCC3)CC2)cc1)Nc1ccc(-c2nc(N3CCOCC3)nc(N3C4CCC3COC4)n2)cc1` [Example 755, 1-{4-[(4-cyclopentylpiperazin-1-yl)carbonyl]phenyl}-3-{4-[4-morpholin-4-yl-6-(3-oxa-8-azabicyclo[3.2.1]oct-8-yl)-1,3,5-triazin-2-yl]phenyl}urea] the same measures were 3 nM, 0.57 nM, 26.5 nM, 13 nM and 2 nM.
